This note sets out measurements from US11771086B2, “Pest control composition including novel iminopyridine derivative” (priority 2012, dated 2023).

The subject of data set [1] is Plutella xylostella. The data set can be described thus: whole plant or invertebrate. Format: in vivo. On the procedure: After an air drying process, second instar larvae were released thereto. […] The test was performed in duplicate.
(§1) Method for Judging Synergistic Effects

Data set [2] has as its system Haemaphysalis longicornis. The data set can be described thus: whole plant or invertebrate. The format is in vivo. The note with it: capsule on mouse, five days, mortality and agonal rate; for mortality at 0.00038 mg: read-out: Mortality of single agent against Haemaphysalis longicornis, single agent 0.38 μg. On the procedure:
A capsule with a diameter of 2 cm and a height of 2 cm was attached to the dorsal surface of a mouse. A compound of Formula (I), ivermectin, moxidectin, permethrin, amitraz, fipronil, spinetram and the mixture of the compound of Formula (I) and each insecticide were dissolved in ethanol at the concentrations given in […], and each of these was dripped onto the surface of a mouse body within a capsule. After thorough drying, eight Haemaphysalis longicornis nymphs were released and the top of the capsule was sealed with a lid. The mouse was kept in a cage at 25° C. using a 12-hour light period and a 12-hour dark period. Five days after the release, the capsule was removed and the number of surviving and dead nymphs and the number of engorged individuals were counted and the insect mortality and agonal rate was calculated by the following equation. Insect mortality and agonal rate (%)={number of dead and agonal insects/(number of survived insects+number of dead and agonal insects)}×100

The test system of data set [3] is Laodelphax striatella. The data set can be described thus: whole plant or invertebrate. To be noted: for mortality at 0.005 mg/seedling: read-out: Mortality of single agent against Laodelphax striatella, single agent 0.005 mg/Seedling; for Theoretical value by Colby's equation: Laodelphax striatella soil irrigation. On the procedure: After the rice seedling was left to stand for 3 days, second instar larvae were released thereto. Thereafter, the larvae were left to stand in a thermostatic chamber (16 hours of light period-8 hours of dark period) at 25° C. […] The test was performed in duplicate. Mortality of larvae (%)={number of dead larvae/(number of survived larvae+number of dead larvae)}×100
B: 100−(mortality of larvae or adults when treated only with each of imidacloprid, fipronil, chlorantraniliprole, spinosad, clothianidin, dinotefuran, sulfoxaflor, pymetrozine, thiamethoxam, flupyradifurone and cycloxaprid))
as §1
When the mortality against Laodelphax striatella in the case of a mixture with another agent exceeded the theoretical value by the Colby's equation, a synergistic effect was judged to be present.

The test system of data set [4] is Laodelphax striatella. Briefly: Reference Test Example 18 Pest control test of Laodelphax striatella (wheat seedling root treatment). The format is in vivo. The note with it: wheat seedling roots treated; four days after release; 20 μg/seedling. The procedure:
The drug was absorbed from the roots for 72 hours, and then ten second instar larvae of Laodelphax striatella were each released thereto. […] The test was performed in duplicate.

Data set [5] concerns Plutella xylostella. The data set can be described thus: Reference Test Example 1 Pest control test of Plutella xylostella (foliar treatment, single agent). To be noted: foliar treatment, single agent. Format: in vivo. Set-up: Plutella xylostella (Reference Test Example 1), mortality of larvae: concentration or dose not given beside the values. An excerpt:
After an air drying process, second instar larvae were released thereto. […] Test in duplicate.

Data set [6] deals with Aphis gossypii. Briefly: Reference Test Example 3 Pest control test of Aphis gossypii (foliar treatment, single agent). Set-up: Aphis gossypii (Reference Test Example 3), mortality of larvae: concentration or dose not given beside the values. Format: in vivo. The note with it: foliar treatment, single agent.
Data set [7] concerns Spodoptera litura. Briefly: whole plant or invertebrate. The format is in vivo. To be noted: for Theoretical value by Colby's equation: Spodoptera litura; for Mortality of single agent against Spodoptera litura: cabbage leaf disk spray, three days. The procedure: After an air drying process, third instar larvae were released thereto. […] The test was performed in duplicate.
as §1

[8] abbreviates: Haemaphysalis longicornis, topical, 120 h.
Where [9] appears, read: Laodelphax striatellus, soil, 72 h, soil irrigation.

For `O=c1c(-c2ccccc2)c([O-])[n+](Cc2ccc(Cl)nc2)c2ccccn12` [1-((6-chloropyridin-3-yl)methyl)-4-oxo-3-phenyl-4H-pyrido[1,2-a]pyrimidin-1-ium-2-olate], the mortality at 1 ppm in data set [1] (Plutella xylostella, foliar, 72 h, read-out: Mortality of single agent against Plutella xylostella, single agent 1 ppm, cabbage leaf disk spray, three days) amounted to 30%. In addition, the “Theoretical value by Colby's equation” value in data set [1] (Plutella xylostella, single agent 1 ppm (other component 0)) is reported as 30%.

For `Cc1ccc(/N=C/N(C)/C=N/c2ccc(C)cc2C)c(C)c1` [Amitraz], the mortality at 0.00038 mg in data set [2] (setting [8]) worked out at 41%.

Turning to `CN/C(=N\[N+](=O)[O-])NCc1cnc(Cl)s1` [Clothianidin], in data set [3] (setting [9]), the mortality at 0.005 mg/seedling turned out to be 23%.

Turning to `N#Cc1cccn(Cc2ccc(Cl)nc2)c1=NC(=O)C(F)(F)F` [Compound 102-2], in data set [4], the “Laodelphax striatella (Reference Test Example 18), mortality of larvae” value (from here on “Laodelphax striatella … of larvae”) came out at 100%. Besides, the “Plutella xylostella (Reference Test Example 1), mortality of larvae” value (“Plutella xylostella … of larvae” below) in data set [5] came to 10%. Further, the “Aphis gossypii (Reference Test Example 3), mortality of larvae” value (shortened to “Aphis gossypii”) in data set [6] came out at 100%.

Take `O=C(N=c1ccccn1Cc1ccc(Cl)nc1)C(F)(F)F` [Compound P-212]: the “Laodelphax striatella … of larvae” value in data set [4] is 100%. Moreover, the “Plutella xylostella … of larvae” value in data set [5] turned out to be 100%. For the same compound, the “Aphis gossypii” value in data set [6] is listed as 100%.

As to `O=C(N=c1ccccn1Cc1cnc(Cl)s1)C(F)(F)F` [Compound P-213], the “Laodelphax striatella … of larvae” value in data set [4] is reported as 100%. The “Plutella xylostella … of larvae” value in data set [5] is reported as 100%. In addition, in data set [6], the “Aphis gossypii” value amounted to 100%.

On to `O=C(N=c1ccc(Cl)cn1Cc1ccc(Cl)nc1)C(F)(F)F` [Compound P-215], for which, in data set [4], the “Laodelphax striatella … of larvae” value worked out at 75%. For the same compound, the “Plutella xylostella … of larvae” value in data set [5] is 100%. Moreover, in data set [6], the “Aphis gossypii” value was 80%.

Turning to `O=C(N=c1ccc(F)cn1Cc1ccc(Cl)nc1)C(F)(F)F` [Compound P-216], in data set [4], the “Laodelphax striatella … of larvae” value stood at 100%. Moreover, in data set [5], the “Plutella xylostella … of larvae” value is 100%. Also, the “Aphis gossypii” value in data set [6] is given as 95%.

`O=C(N=c1ccccn1Cc1cnc(Cl)c(F)c1)C(F)(F)F` [Compound P-227]: in data set [4], the “Laodelphax striatella … of larvae” value is reported as 100%. Moreover, the “Plutella xylostella … of larvae” value in data set [5] was 100%. For the same compound, the “Aphis gossypii” value in data set [6] is recorded as 100%.

`O=C(N=c1ccccn1Cc1ccc(C(F)(F)F)nc1)C(F)(F)F` [Compound P-228]: the “Laodelphax striatella … of larvae” value in data set [4] was 100%. The “Plutella xylostella … of larvae” value in data set [5] worked out at 30%. In addition, the “Aphis gossypii” value in data set [6] is 95%.

Turning to `O=C(N=c1ccccn1Cc1ccc(F)nc1)C(F)(F)F` [Compound P-229], the “Laodelphax striatella … of larvae” value in data set [4] amounted to 100%. For the same compound, the “Plutella xylostella … of larvae” value in data set [5] is on record as 100%. For the same compound, the “Aphis gossypii” value in data set [6] is 100%.

`O=C(N=c1ccccn1Cc1ccc(Br)nc1)C(F)(F)F` [Compound P-231]: the “Laodelphax striatella … of larvae” value in data set [4] is reported as 100%. In data set [5], the “Plutella xylostella … of larvae” value came to 100%. Further, the “Aphis gossypii” value in data set [6] is recorded as 100%.

For `O=C(N=c1ccccn1Cc1ccc(Cl)nc1)C(Cl)Cl` [Compound P-234], the “Laodelphax striatella … of larvae” value in data set [4] is given as 100%. In addition, the “Plutella xylostella … of larvae” value in data set [5] was determined as 100%. Also, the “Aphis gossypii” value in data set [6] is reported as 100%.

For the compound `O=C(N=c1ccccn1Cc1ccc(Cl)nc1)C(Cl)(Cl)Cl` [Compound P-235], the “Laodelphax striatella … of larvae” value in data set [4] stood at 75%. Also, the “Plutella xylostella … of larvae” value in data set [5] amounted to 100%. The “Aphis gossypii” value in data set [6] was found to be 95%.

`O=C(N=c1ccccn1Cc1ccc(Cl)nc1)C(F)F` [Compound P-238]: the “Laodelphax striatella … of larvae” value in data set [4] stood at 100%. Further, the “Plutella xylostella … of larvae” value in data set [5] stood at 100%. Further, the “Aphis gossypii” value in data set [6] stood at 100%.

In the case of `O=C(N=c1ccccn1Cc1ccc(Cl)nc1)C(F)(F)Cl` [Compound P-239], the “Laodelphax striatella … of larvae” value in data set [4] was determined as 100%. Besides, the “Plutella xylostella … of larvae” value in data set [5] is recorded as 100%. For the same compound, in data set [6], the “Aphis gossypii” value amounted to 100%.

In the case of `O=C(N=c1ccccn1Cc1ccc(Cl)nc1)C(F)(F)C(F)(F)F` [Compound P-242], the “Laodelphax striatella … of larvae” value in data set [4] was determined as 100%. In data set [5], the “Plutella xylostella … of larvae” value amounted to 100%. For the same compound, in data set [6], the “Aphis gossypii” value was 100%.

Take `O=C(N=c1ccccn1Cc1cnc(Cl)nc1)C(F)(F)F` [Compound P-243]: the “Laodelphax striatella … of larvae” value in data set [4] worked out at 100%. Further, in data set [5], the “Plutella xylostella … of larvae” value stood at 100%. Besides, the “Aphis gossypii” value in data set [6] stood at 100%.

As for `O=[N+]([O-])C1=C2N(Cc3ccc(Cl)nc3)CCN2[C@H]2CC[C@@H]1O2` [Cycloxaprid], the “Theoretical value by Colby's equation” value in data set [3] (single agent 0.005 mg/Seedling (other component 0)) is 0%. The “Mortality of single agent against Laodelphax striatella” value in data set [3] (single agent 0.005 mg/Seedling, soil irrigation) was 0%.

In the case of `CCc1nc2cc(C)c(Oc3ccc(OC(F)(F)F)cc3)cc2c(OC(=O)OC)c1C` [Flometoquin], the “Theoretical value by Colby's equation” value in data set [1] (Plutella xylostella, single agent 0.313 ppm (other component 0)) is recorded as 0%; in data set [7] (single agent 5 ppm (other component 0)), 10%. The “Mortality of single agent against Plutella xylostella” value in data set [1] (single agent 0.313 ppm, cabbage leaf disk spray, three days) came out at 0%. In data set [7] (single agent 5 ppm), the “Mortality of single agent against Spodoptera litura” value was 10%.

As for `O=C1C=C(N(Cc2ccc(Cl)nc2)CC(F)F)CO1` [Flupyradifurone], the “Theoretical value by Colby's equation” value in data set [3] (single agent 0.01 mg/Seedling (other component 0)) amounted to 5%. The “Mortality of single agent against Laodelphax striatella” value in data set [3] (single agent 0.01 mg/Seedling, soil irrigation) came to 5%.

Turning to `CC[C@H](C)[C@H]1O[C@]2(CC[C@@H]1C)C[C@@H]1C[C@@H](C/C=C(\C)[C@@H](O[C@H]3C[C@H](OC)[C@@H](O[C@H]4C[C@H](OC)[C@@H](O)[C@H](C)O4)[C@H](C)O3)[C@@H](C)/C=C/C=C3\CO[C@@H]4[C@H](O)C(C)=C[C@@H](C(=O)O1)[C@]34O)O2` [Ivermectin], in data set [2] (single agent 0.009 μg), the “Mortality of single agent against Haemaphysalis longicornis” value is given as 3%.

On to `CO/N=C1\C[C@]2(C[C@@H]3C[C@@H](C/C=C(\C)C[C@@H](C)/C=C/C=C4\CO[C@@H]5[C@H](O)C(C)=C[C@@H](C(=O)O3)[C@]45O)O2)O[C@H](/C(C)=C/C(C)C)[C@H]1C` [Moxidectin], for which the mortality at 9 ng in data set [2] (Haemaphysalis longicornis, topical, 120 h, read-out: Mortality of single agent against Haemaphysalis longicornis, single agent 0.009 μg) was determined as 6%.

For `CC1(C)C(C=C(Cl)Cl)C1C(=O)OCc1cccc(Oc2ccccc2)c1` (stereo not shown) [Permethrin], in data set [2] (Haemaphysalis longicornis, topical, 120 h, read-out: Mortality of single agent against Haemaphysalis longicornis, single agent 9.5 μg), the mortality at 0.0095 mg was found to be 71%.

`CC1=NNC(=O)N(/N=C/c2cccnc2)C1` [Pymetrozine]: the mortality at 0.05 mg/seedling in data set [3] (Laodelphax striatellus, soil, 72 h, read-out: Mortality of single agent against Laodelphax striatella, single agent 0.05 mg/Seedling, soil irrigation) turned out to be 15%.

`CC(c1ccc(C(F)(F)F)nc1)S(C)(=O)=NC#N` (stereo not shown) [Sulfoxaflor]: in data set [3] (setting [9]), the mortality at 0.005 mg/seedling was 1%.

For `CN1COCN(Cc2cnc(Cl)s2)/C1=N\[N+](=O)[O-]` [Thiamethoxam], the mortality at 0.01 mg/seedling in data set [3] (Laodelphax striatellus, soil, 72 h, read-out: Mortality of single agent against Laodelphax striatella, single agent 0.01 mg/Seedling, soil irrigation) amounted to 23%.

For `CN/C(=N/CC1CCOC1)N[N+](=O)[O-]` (stereo not shown) [dinotefuran], the mortality at 0.0019 mg in data set [2] (Haemaphysalis longicornis, topical, 120 h, read-out: Mortality of single agent against Haemaphysalis longicornis, single agent 1.9 μg) turned out to be 0%.

On to `N#Cc1nn(-c2c(Cl)cc(C(F)(F)F)cc2Cl)c(N)c1[S+]([O-])C(F)(F)F` (stereo not shown) [fipronil], for which the mortality at 0.00038 mg in data set [2] (setting [8]) was 78%.

Take Emamectin benzoate: the “Theoretical value by Colby's equation” value in data set [7] (single agent 0.02 ppm (other component 0)) was 0%. Besides, the “Mortality of single agent against Spodoptera litura” value in data set [7] (single agent 0.02 ppm) is 0%.
